Consider 11 molecules from PubChem BioAssay (NCI).

Holding throughout (test): NCI anticancer screen, dose series, 48 h
Experiment [1] has as its system OVCAR-4 ovarian.
Experiment [2] relates to RXF 393 renal.
For experiment [3], the system named is OVCAR-8 ovarian.
For experiment [4], the system named is IGROV1 ovarian.
Experiment [5] relates to HCT-15 colon.
Experiment [6] relates to A498 renal.
In experiment [7] the test system is SK-MEL-28 melanoma.
Experiment [8] has as its system 786-0 renal.
The subject of experiment [9] is TK-10 renal.
In experiment [10] the test system is MDA-MB-231 breast.

Molecules are shown by their SMILES. “And” between values parts separate entries of the source, which are not always exact repeats. Equal entries are not always repeated.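 48-hour exposure; five concentrations; linearly interpolated endpoints. GI50: concentration for 50% inhibition of growth. The concentration for full growth arrest is given as TGI.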

For the molecule `COc1ncc(-c2ccc3nccc(-c4ccnnc4)c3c2)cc1NS(=O)(=O)c1ccc(F)cc1F`, the GI50 in experiment [1] was 0.033 µM and 0.0217 µM; in [2], 0.0048 µM and < 0.01 µM; in experiment [3], 0.0191 µM and 0.0173 µM; in experiment [4], < 0.01 µM; in [5], 0.00632 µM and < 0.01 µM; in [6], 0.0015 µM. For the same molecule, the GI50 in experiment [7] was 0.00213 µM and < 0.01 µM; in experiment [8] it was 0.00651 µM and < 0.01 µM; in [9], 0.00325 µM and < 0.01 µM; in experiment [10], 0.0392 µM and 0.0439 µM. For the same molecule, the TGI in experiment [2] is 0.0436 µM and 0.0351 µM; in experiment [3], > 5.42 µM and 3.25 µM; in experiment [4] it was 0.00752 µM and < 0.01 µM; in experiment [5] it was > 4.83 µM and 5.11 µM; in [6], 0.00826 µM; in experiment [7] it was 0.0395 µM and 0.36 µM. The TGI in [8] was 0.0791 µM and 0.106 µM; in experiment [9], 0.0831 µM and 0.0719 µM; in experiment [10], 1.83 µM.

On to `O=C(c1ccco1)c1nc2cc(Cl)ccc2[n+]([O-])c1C(F)(F)F`, for which the GI50 in experiment [1] was 29.2 µM; in [2], 19.5 µM; in experiment [3] it was 57.1 µM; in [4] it was 54.5 µM; in experiment [5], 32.7 µM; in experiment [6], > 100 µM. The GI50 is 90.1 µM in experiment [7], > 100 µM in [8], 44.1 µM in experiment [9] and 34.2 µM in experiment [10]. Also, the TGI in [1] was 75.7 µM; in [2], 59.2 µM; in experiment [3], > 100 µM; in experiment [4], > 100 µM; in [5], > 100 µM; in [6], > 100 µM. For the same molecule, the TGI in experiment [7], in experiment [8], in experiment [9] and in experiment [10] was > 100 µM throughout.

In the case of `CC[C@H](Nc1nc(NCc2cnc(C)cc2C)c2ncn(C(C)C)c2n1)[C@@H](C)O`, the GI50 in [1] is 0.631 µM; in [2] it was 0.179 µM; in experiment [3] it was 0.382 µM; in experiment [4] it was 0.347 µM; in experiment [5], 0.349 µM; in [6] it was 0.167 µM. Moreover, the GI50 is 0.374 µM in experiment [7], 0.361 µM in experiment [8], 0.625 µM in [9] and 0.313 µM in experiment [10]. Moreover, the TGI in experiment [1] was 11.5 µM; in experiment [2], 0.389 µM; in [3] it was > 100 µM; in [4] it was > 100 µM; in experiment [5], 4.89 µM; in experiment [6], 0.391 µM. For the same molecule, the TGI in [7] is 6.8 µM; in experiment [8], > 100 µM; in experiment [9] it was > 100 µM; in experiment [10], > 100 µM.

Turning to `O=c1c2ccccc2n(C[C@H]2CO2)c2ccccc12`, the GI50 in experiment [1] is 2.4 µM; in experiment [2], 1.39 µM; in experiment [3], 1.26 µM; in experiment [4], 1.53 µM; in [5], 1.68 µM; in experiment [6], 2.62 µM. The GI50 in experiment [7] is 2.4 µM; in experiment [8] it was 2.75 µM; in [9], 2.34 µM; in experiment [10] it was 2.07 µM. Also, the TGI in experiment [1] was 7.89 µM; in experiment [2] it was 2.82 µM; in [3], 5.35 µM; in experiment [4], 5.6 µM; in experiment [5] it was 5.27 µM; in experiment [6], 6.57 µM. In addition, the TGI was found to be 5.76 µM in experiment [7], 8.17 µM in experiment [8], 6.77 µM in experiment [9] and 5.24 µM in experiment [10].

On to `Cc1c(-c2c(-c3ccc(F)o3)sc3ncnc(O[C@H](Cc4ccccc4OCc4ccnn4CC(F)(F)F)C(=O)O)c23)ccc(OCCN2CCN(C)CC2)c1Cl`, for which the GI50 in experiment [1] is 4.86 µM; in experiment [2], 2.77 µM; in experiment [3], 5.82 µM; in experiment [4], 5.68 µM; in experiment [5] it was 6.49 µM; in experiment [6] it was 3.03 µM. In addition, the GI50 in experiment [7] was 3.84 µM; in [8], 3.97 µM; in experiment [9], 5.31 µM; in experiment [10] it was 3.8 µM. The TGI in [1] amounted to 17.8 µM; in [2], 6.1 µM; in experiment [3], 15.5 µM; in experiment [4], 14.8 µM; in [5] it was 20.1 µM; in experiment [6] it was 9.6 µM. Also, the TGI in experiment [7] was determined as 7.82 µM; in experiment [8], 8.33 µM; in experiment [9], 16.2 µM; in [10] it was 7.84 µM.

As for `O=C(CNc1ccc2c(c1)C(=O)c1ccccc1C2=O)Nc1ccc2c(c1)C(=O)c1ccccc1C2=O`, the GI50 is 1.5 µM in [1]; 0.687 µM in [2]; 0.423 µM in [3]; 0.681 µM in experiment [4]; 0.312 µM in experiment [5]; 1.62 µM in experiment [6]. Further, the GI50 was 1.68 µM in experiment [7], 0.451 µM in experiment [8], 1.7 µM in experiment [9] and 1.31 µM in [10]. Besides, the TGI was 4.05 µM in experiment [1]; 2.04 µM in experiment [2]; 2.03 µM in [3]; 2.7 µM in experiment [4]; 0.972 µM in experiment [5]; 3.16 µM in [6]. Also, the TGI in [7] is 3.13 µM; in experiment [8] it was 1.69 µM; in experiment [9] it was 3.17 µM; in [10], 4.71 µM.

On to `CC1(C)N=C(N)N=C(N)N1c1ccc(OCCCCOc2ccc(S(=O)(=O)F)cc2)c(Cl)c1`, for which the GI50 is 6.4 µM in experiment [1]; 0.363 µM in experiment [2]; 0.348 µM in experiment [3]; 0.0602 µM in experiment [4]; 1.12 µM in experiment [5]; 1.1 µM in experiment [6]. Moreover, the GI50 was 0.559 µM in [7], 0.355 µM in experiment [8], 1.13 µM in experiment [9] and 1.9 µM in experiment [10]. Moreover, the TGI in experiment [1] is 27.7 µM; in [2], 23.2 µM; in experiment [3] it was 17.4 µM; in experiment [4], 21.8 µM; in [5] it was > 100 µM; in experiment [6] it was 19.9 µM. Moreover, the TGI stood at 28.8 µM in [7], 18.9 µM in experiment [8], 20.7 µM in experiment [9] and 23.9 µM in experiment [10].

Consider `O=C(/C=C/c1cccnc1)NCCCCC1CCCN(C(=O)c2ccccc2)C1` (centres undefined), for which the GI50 in [1] is > 74 µM; in experiment [2], > 100 µM; in [3], < 0.01 µM; in [4], 0.0615 µM; in experiment [5], < 0.01 µM; in experiment [6] it was > 61.1 µM. Besides, the GI50 was > 100 µM in experiment [7], > 64.3 µM in experiment [8], > 100 µM in experiment [9] and > 100 µM in experiment [10]. For the same molecule, the TGI in experiment [1], in experiment [2], in experiment [3], in experiment [4], in experiment [5] and in [6] was > 100 µM each time. Besides, the TGI in [7], in experiment [8], in experiment [9] and in experiment [10] was > 100 µM each time.

As for `CCn1c(CN2CCN(Cc3ccccc3)CC2)nc2cc(NC(=O)c3cccs3)ccc21`, the GI50 in [1] is 16.4 µM; in [2], 12.5 µM; in experiment [3] it was 20.1 µM; in [4] it was 26.5 µM; in [5], 14.1 µM; in experiment [6], 6.05 µM. Also, the GI50 in [7] was 16 µM; in experiment [8], 21.4 µM; in experiment [9], 24 µM; in experiment [10], 16.9 µM. In addition, the TGI in [1] was 86.4 µM; in experiment [2], 33.1 µM; in [3], 55.9 µM; in experiment [4], 80.3 µM; in experiment [5], 51.6 µM; in experiment [6] it was 29.6 µM. The TGI in experiment [7] is 34.3 µM; in [8], 66.1 µM; in experiment [9], 70.4 µM; in experiment [10], > 100 µM.

In the case of `COc1ccccc1CCN=C1NC(=O)/C(=C/c2ccc3ncccc3c2)S1`, the GI50 in experiment [1] was 4.27 µM; in experiment [2] it was 5.5 µM; in experiment [3], 6.75 µM; in [4], 4.87 µM; in [5], 1.32 µM; in [6], 3.45 µM. The GI50 was 8.22 µM in experiment [7], 8.24 µM in experiment [8], 4.48 µM in experiment [9] and 9.39 µM in [10]. The TGI in experiment [1] is 20.5 µM; in experiment [2], 16.9 µM; in experiment [3], > 25 µM; in [4] it was 19.6 µM; in [5] it was > 25 µM; in experiment [6], 12.3 µM. For the same molecule, the TGI is > 25 µM in experiment [7], > 25 µM in experiment [8], > 21.7 µM in [9] and > 25 µM in experiment [10].

Turning to `CCC/C(=N/N=C(N)N)c1ccc(NC(=O)c2cc3cc(OC)ccc3[nH]2)cc1`, the GI50 in [1] was 3.74 µM; in [2], 10.6 µM; in [3], 12.7 µM; in [4] it was 20.2 µM; in experiment [5], 14.5 µM; in experiment [6] it was 19.9 µM. For the same molecule, the GI50 in experiment [7] was 10.5 µM; in experiment [8], 3.61 µM; in experiment [9] it was 17.9 µM; in experiment [10] it was 11.5 µM. Further, the TGI is 18.7 µM in experiment [1]; 30.8 µM in experiment [2]; 39.1 µM in [3]; 56.9 µM in experiment [4]; 36.1 µM in [5]; 54.2 µM in experiment [6]. Also, the TGI is 40.2 µM in experiment [7], 29.2 µM in experiment [8], 39 µM in experiment [9] and 29.4 µM in [10].
